Residues, ends and D or L forms follow the SMILES beside them. No end group written: not given here.
Target: T1, xanthine oxidase (XO) of cow's milk (Bos taurus, UniProt P80457)
T1 construct: xanthine oxidase (XO) of cow's milk (from Wako Pure Chemical); purchased Wako Pure Chemical; host or cells: cow's milk (natural source)
Experiment: Uric acid synthetase inhibitory activity of peptides that are part of SEQ ID No. 1
Format: biochemical
Conditions: 15 μM xanthine, 50 mM tris-HCl pH 7.4, 37° C., 10 minutes
Procedure: Each of the peptides synthesized was added to 1 ml of a 50 mM tris-HCl buffer (pH 7.4) containing 15 μM xanthine as an enzyme substrate to prepare a reaction system. To the reaction system was added 0.1 unit (containing 100 μl of 25 units/25 ml enzyme solution) of xanthine oxidase (XO) of cow's milk (from Wako Pure Chemical), followed by allowing the system to react at 37° C. for 10 minutes. The amount of uric acid produced from xanthine by the action of xanthine oxidase was evaluated in terms of changes in optical density (OD, at 292 nm), from which the enzyme activity was calculated from formula previously given.

T1 sequence (P80457 whole entry): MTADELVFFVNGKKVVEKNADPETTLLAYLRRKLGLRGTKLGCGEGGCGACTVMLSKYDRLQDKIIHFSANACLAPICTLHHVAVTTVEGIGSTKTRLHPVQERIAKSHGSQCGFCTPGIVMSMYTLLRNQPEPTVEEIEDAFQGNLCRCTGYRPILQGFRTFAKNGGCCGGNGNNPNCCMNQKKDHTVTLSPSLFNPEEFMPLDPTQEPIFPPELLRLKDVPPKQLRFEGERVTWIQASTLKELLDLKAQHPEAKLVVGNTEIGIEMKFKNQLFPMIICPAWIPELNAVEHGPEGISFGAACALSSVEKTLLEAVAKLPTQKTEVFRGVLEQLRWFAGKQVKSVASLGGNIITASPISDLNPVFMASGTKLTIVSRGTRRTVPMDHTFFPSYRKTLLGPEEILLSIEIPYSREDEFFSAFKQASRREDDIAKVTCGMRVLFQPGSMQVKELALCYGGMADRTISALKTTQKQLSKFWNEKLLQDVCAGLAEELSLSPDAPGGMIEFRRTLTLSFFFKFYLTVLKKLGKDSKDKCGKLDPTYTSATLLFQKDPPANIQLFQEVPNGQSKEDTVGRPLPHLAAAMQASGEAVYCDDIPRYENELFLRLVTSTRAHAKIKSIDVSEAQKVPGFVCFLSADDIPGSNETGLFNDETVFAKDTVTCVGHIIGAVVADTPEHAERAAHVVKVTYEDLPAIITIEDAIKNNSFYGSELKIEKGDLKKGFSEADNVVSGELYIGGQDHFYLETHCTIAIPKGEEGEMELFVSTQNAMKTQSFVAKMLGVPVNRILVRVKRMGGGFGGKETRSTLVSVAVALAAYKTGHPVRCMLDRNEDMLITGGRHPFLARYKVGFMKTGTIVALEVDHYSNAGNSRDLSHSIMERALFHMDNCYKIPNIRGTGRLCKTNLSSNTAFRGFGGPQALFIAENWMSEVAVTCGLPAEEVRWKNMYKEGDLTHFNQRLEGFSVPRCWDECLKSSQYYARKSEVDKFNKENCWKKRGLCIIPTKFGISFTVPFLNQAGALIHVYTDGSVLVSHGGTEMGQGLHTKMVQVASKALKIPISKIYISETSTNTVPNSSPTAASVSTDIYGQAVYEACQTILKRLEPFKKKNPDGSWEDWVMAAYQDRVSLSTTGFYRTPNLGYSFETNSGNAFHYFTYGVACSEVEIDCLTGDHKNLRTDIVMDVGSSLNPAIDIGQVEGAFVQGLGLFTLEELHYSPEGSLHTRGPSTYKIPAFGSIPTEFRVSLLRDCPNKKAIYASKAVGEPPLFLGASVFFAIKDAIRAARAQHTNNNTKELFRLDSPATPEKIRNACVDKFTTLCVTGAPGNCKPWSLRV

xanthine oxidase activity in system containing the peptide | Compound
inhibited | NC(=O)C[C@H](NC(=O)[C@@H](N)CC(=O)O)C(=O)O [DN] (H-Asp-Asn-OH; N-terminus and C-terminus assumed)
inhibited | CC(C)C[C@H](N)C(=O)N[C@@H](CC(=O)O)C(=O)N[C@@H](CC(N)=O)C(=O)N[C@@H](Cc1ccc(O)cc1)C(=O)O [LDNY, Leu-Asp-Asn-Tyr] (H-LDNY-OH; N-terminus and C-terminus assumed)
inhibited | CC(C)C[C@H](N)C(=O)N[C@@H](CC(=O)O)C(=O)O [LD] (H-Leu-Asp-OH; N-terminus and C-terminus assumed)

Compound | xanthine oxidase activity in system containing the peptide
CC(C)C[C@H](NC(=O)[C@@H](N)Cc1ccc(O)cc1)C(=O)N[C@@H](CC(=O)O)C(=O)N[C@@H](CC(N)=O)C(=O)O [YLDN, Tyr-Leu-Asp-Asn] (H-YLDN-OH; N-terminus and C-terminus assumed) | inhibited

System: not listed separately
Experiment: Solubility of synthesized polypeptides
Conditions: in 5% NH4OH with H2O
Procedure: Twenty-four polypeptides contained in the alcalase-digested, reverse phase column fraction of the basic fraction were synthesized in yields of 10 to 300 mg in the same manner as described in Example 7 and their characteristic values were determined.

Solubility [mg/ml in 5% NH4OH] | Compound
1 | CC[C@H](C)[C@H](NC(=O)[C@@H](N)CO)C(=O)N[C@@H](Cc1ccc(O)cc1)C(=O)N[C@@H](CC(=O)O)C(=O)O [Ser-Ile-Tyr-Asp] (H-SIYD-OH; N-terminus and C-terminus assumed)
1 | CC[C@H](C)[C@H](N)C(=O)N[C@@H](CC(N)=O)C(=O)N[C@@H](Cc1ccc(O)cc1)C(=O)O [Ile-Asn-Tyr] (H-Ile-Asn-Tyr-OH; N-terminus and C-terminus assumed)

Compound | Solubility [mg/ml in 5% NH4OH]
CC[C@H](C)[C@H](NC(=O)[C@@H](N)Cc1ccc(O)cc1)C(=O)N[C@@H](CC(N)=O)C(=O)N[C@@H](Cc1ccc(O)cc1)C(=O)O [YINY, Try-Ile-Asn-Tyr] (H-YINY-OH; N-terminus and C-terminus assumed) | 1

Same assay, conditions: in 10% Acetonitrile in water

Solubility | Compound
1 mg/ml in 10% | CC(C)C[C@H](NC(=O)[C@H](Cc1ccccc1)NC(=O)CN)C(=O)O [Gly-Phe-Leu] (H-Gly-Phe-Leu-OH; N-terminus and C-terminus assumed)
1 mg/ml in 10% in | CC[C@H](C)[C@H](N)C(=O)N[C@@H](Cc1ccc(O)cc1)C(=O)N[C@@H](CC(C)C)C(=O)O [Ile-Tyr-Leu] (H-Ile-Tyr-Leu-OH; N-terminus and C-terminus assumed)

Compound | Solubility
YLDNY [YLDNY, Tyr-Leu-Asp-Asn-Tyr] | 1 mg/ml in 10%

Same assay, conditions: in water (H2O)

Solubility | Compound
1 mg/ml in H2O | CC(C)C[C@H](N)C(=O)N[C@@H](Cc1ccccc1)C(=O)O [Leu-Phe] (H-Leu-Phe-OH; N-terminus and C-terminus assumed)
1 mg/ml in H2O | N[C@@H](Cc1ccccc1)C(=O)N[C@@H](Cc1ccc(O)cc1)C(=O)O [Phe-Tyr] (H-Phe-Tyr-OH; N-terminus and C-terminus assumed)
1 mg/ml in H2O | N=C(N)NCCC[C@H](N)C(=O)N[C@@H](Cc1ccc(O)cc1)C(=O)N[C@@H](Cc1ccccc1)C(=O)O [Arg-Tyr-Phe] (H-Arg-Tyr-Phe-OH; N-terminus and C-terminus assumed)
1 mg/ml in H2O | CC[C@H](C)[C@H](N)C(=O)N[C@@H](CC(N)=O)C(=O)N[C@@H](Cc1ccccc1)C(=O)O [INF, Ile-Asn-Phe] (H-Ile-Asn-Phe-OH; N-terminus and C-terminus assumed)
1 mg/ml in H2O | NC(=O)CC[C@H](NC(=O)[C@H](Cc1c[nH]c2ccccc12)NC(=O)[C@H](CC(N)=O)NC(=O)[C@@H](N)CO)C(=O)O [Ser-Asn-Trp-Gln] (H-SNWQ-OH; N-terminus and C-terminus assumed)
1 mg/ml in water | DFWRY [Asp-Phe-Trp-Arg-Tyr]
1 mg/ml in water | CC(C)C[C@H](NC(=O)[C@@H](N)CO)C(=O)O [Ser-Leu] (H-Ser-Leu-OH; N-terminus and C-terminus assumed)
1 mg/ml in water | CC(C)C[C@H](N)C(=O)N[C@@H](CC(=O)O)C(=O)N[C@@H](CC(N)=O)C(=O)N[C@@H](Cc1ccc(O)cc1)C(=O)O [LDNY, Leu-Asp-Asn-Tyr] (H-LDNY-OH; N-terminus and C-terminus assumed)
1 mg/ml in water | CC(C)[C@H](N)C(=O)N[C@@H](CCC(=O)O)C(=O)N[C@@H](Cc1ccc(O)cc1)C(=O)N[C@@H](Cc1ccccc1)C(=O)O [Val-Gln-Tyr-Phe]
1 mg/ml in H2O | CC(C)[C@H](N)C(=O)N[C@@H](Cc1ccc(O)cc1)C(=O)N[C@@H](CCC(N)=O)C(=O)O [Val-Tyr-Gln] (H-Val-Tyr-Gln-OH; N-terminus and C-terminus assumed)
1 mg/ml in H2O | CC(C)C[C@H](NC(=O)[C@H](Cc1ccc(O)cc1)NC(=O)CN)C(=O)O [GYL, Gly-Tyr-Leu] (H-Gly-Tyr-Leu-OH; N-terminus and C-terminus assumed)
1 mg/ml in water | SPPYWPY [SPPYWPY, Ser-Pro-Pro-Tyr-Trp-Pro-Tyr]

Compound | Solubility
CC(C)C[C@H](NC(=O)[C@@H](N)Cc1ccc(O)cc1)C(=O)N[C@@H](CC(=O)O)C(=O)N[C@@H](CC(N)=O)C(=O)O [YLDN, Tyr-Leu-Asp-Asn] (H-YLDN-OH; N-terminus and C-terminus assumed) | 1 mg/ml in water
CC(C)C[C@H](NC(=O)[C@H](CC(N)=O)NC(=O)[C@@H](N)Cc1ccc(O)cc1)C(=O)O [YNL, Tyr-Asn-Leu] (H-Tyr-Asn-Leu-OH; N-terminus and C-terminus assumed) | 1 mg/ml in H2O

Target: T2, xanthine oxidase (XO) from butter milk (Bos taurus, UniProt P80457)
T2 construct: xanthine oxidase (XO) from butter milk (from Wako Pure Chemical); purchased Wako Pure Chemical; host or cells: butter milk (natural source)
T2 sequence (P80457 whole entry): as above
Experiment: Uric acid synthetase inhibitory activity of polypeptides (YINY, YNL, GYL, INF)
Format: biochemical
Conditions: 15 μM xanthine, pH 7.4, 37° C., 10 minutes
Procedure: A polypeptide having SEQ ID No. 2 (YINY), which is contained in the enzyme-digested reverse-phase column fraction of the basic fraction of a shark cartilage extract, was synthesized in the same manner as in Example 7 and added to 200 μl of a 50 mM tris-HCl buffer (pH 7.4) containing 15 μM xanthine as an enzyme substrate to prepare a reaction system. To the reaction system was added 0.1 unit (containing 1 μl of 10 units/100 μl enzyme solution) of xanthine oxidase (XO) from butter milk (from Wako Pure Chemical), followed by allowing the system to react at 37° C. for 10 minutes. The amount of uric acid produced from xanthine by the action of xanthine oxidase was evaluated in terms of changes in optical density (OD, at 292 nm), from which the enzyme activity was calculated from formula previously given.
Polypeptides YNL, GYL, and INF which are contained in the enzyme-digested reverse-phase column fraction of the basic fraction of a shark cartilage extract were synthesized in the same manner as in Example 7 and added to 200 μl of a 50 mM tris-HCl buffer (pH 7.4) containing 15 μM xanthine as an enzyme substrate to prepare a reaction system. […] The amount of uric acid produced from xanthine by the action of xanthine oxidase was evaluated in terms of changes in optical density (OD, at 292 nm), from which the enzyme activity was calculated from formula previously given. […]

Compound | xanthine oxidase activity in system containing the polypeptide
CC[C@H](C)[C@H](NC(=O)[C@@H](N)Cc1ccc(O)cc1)C(=O)N[C@@H](CC(N)=O)C(=O)N[C@@H](Cc1ccc(O)cc1)C(=O)O [YINY, Try-Ile-Asn-Tyr] (H-YINY-OH; N-terminus and C-terminus assumed) | inhibited

— patent US7951782B2, “Composition effective to prevent or treat adult disease” (Maruha Nichiro Seafoods, Inc, priority 2005, dated 2011)
